{"source": "patent US20080248112A1", "about": "(priority 2007, published 2008)", "system": "glycosylated hemoglobin level (HbAlC)", "test": "Clinical study of long term administration of ranolazine: HbA1C in patients having coronary disease", "assay_type": "in vivo, human", "source_text": "Baseline is in-hospital visit prior to hospitalization.", "note": "Entries after “also recorded” stand apart in the source; their conditions may differ.", "data": [{"smiles": "COc1ccccc1OCC(O)CN1CCN(CC(=O)Nc2c(C)cccc2C)CC1", "note": "(racemic) [Ranolazine, (±)-N-(2,6-dimethylphenyl)-4-[2-hydroxy-3-(2-methoxyphenoxy)-propyl]-1-piperazineacetamide]", "values": [{"measurement": "Number of patients with HbA1c ≧7%", "setting": "Diabetes at enrollment, n = 1098, Month 16", "value": 63}, {"measurement": "Number of patients with HbA1c ≧7%", "setting": "No Diabetes at enrollment, n = 2170, Final Visit", "value": 92}, {"measurement": "Number of patients with HbA1c ≧7%", "setting": "No Diabetes at enrollment, n = 2170, Month 4", "value": 78}, {"measurement": "Number of patients with HbA1c ≧7%", "setting": "No Diabetes at enrollment, n = 2170, Month 8", "value": 72}, {"measurement": "Number of patients with HbA1c ≧7%", "setting": "No Diabetes at enrollment, n = 2170, Month 16", "value": 21}, {"measurement": "Effect on HbAlc levels", "setting": "all patients treated, FIGS. 1 and 2", "value": "HbAlc lowering effect on all patients treated; also recorded: significantly lowers serum HbAlC levels"}, {"measurement": "Effect on HbAlc levels", "setting": "diabetic patients, FIG. 2", "value": "reduction in the amount of HbAlC levels"}, {"measurement": "Effect on HbAlc levels", "setting": "non-diabetic patients, FIG. 2", "value": "reduction in the amount of HbAlC levels"}]}]}
